Laboratory results from paper PMC5537602, “TRPA1 channel mediates organophosphate-induced delayed neuropathy” (Cell Discovery, 2017).

Assays:
[1] = tested on: hens; assay: Transmission electron microscopy of hen spinal cord and sciatic nerve; format: in vivo; conditions: 21 days after exposure
Protocol: For hens, the animals were anesthetized with sodium pentobarbital (100 mg kg^−1) and killed 21 days after exposure to TOCP and malathion. They were then perfused with normal saline followed immediately by 4% paraformaldehyde. The lumbar spinal cord at approximately the L2-L3 level and the sciatic nerve of the left leg were removed and fixed by immersion in ice-cold 2.5% glutaraldehyde. Subsequently, the samples were post-fixed in 1% OsO4 for 1 h, dehydrated with the ethanol series, and embedded in epon resin. Sixty-nanometer ultra-thin sections were double stained with lead citrate and uranyl acetate and examined with an electron microscopy.

[2] = tested on: hens; format: in vivo, hen; conditions: hens, TOCP single dose 750 mg kg−1, end of the 21-day period
Protocol: The chosen adult Hyline Brown hens were raised individually in stainless steel wire cages. After 7 days of acclimatization, the chosen hens were randomly divided into groups (n=6–10 for each group). The hens in the delayed neuropathy groups were administered a single dose of 750 mg kg^−1 TOCP and repeated doses of 75 mg kg^−1 malathion by gavage. TOCP and malathion were dissolved in corn oil and administered at 0.65 ml kg^−1. In the HC030031 treatment groups, 100 mg kg^−1 HC030031 was administered by gavage daily beginning at day 0 or day 11. All hens were examined daily for signs of delayed neurotoxicity. A five-point graded scale was used to describe the clinical symptoms of delayed neuropathy, with 0 indicating normal ambulation; (1) suspected ataxia (lack of strength in the legs and tottering); (2) mild ataxia (slow, clumsy and unsteady gait); (3) gross ataxia (waddling gait and staggering and falling despite being active); (4) mild paralysis (typical paralytic posture and lame appearance); and (5) complete paralysis (unable to maintain posture, stand up or move at all), as described previously.

[3] = molecular target: T1, hTRPA1 (Homo sapiens, UniProt O75762); assay: cell-based; format: cell-based; conditions: 30 μM, calcium-free external solution
T1 construct: expressed in transfected cells; host or cells: HEK293, transient, EGFP plasmid co-transfected
Protocol: (§1) Human embryonic kidney 293 (HEK293) cells were cultured in DMEM containing 10% (vol/vol) heat-inactivated fetal bovine serum, 100 units ml^−1 penicillin–streptomycin and 2 mM L-glutamine at 37 °C in a humidity-controlled sterile incubator with 5% CO2. All cell culture reagents were purchased from Life Technologies. HEK293 cells were transfected transiently with the corresponding plasmids using lipofectamine 2000 (Life Technologies). Transfection efficiency was monitored by co-transfecting EGFP plasmid which codes for the enhanced green fluorescent protein. Electrophysiological recordings were performed between 24 and 36 h after transfection.
(§2) Whole-cell patch-clamp recordings in DRG neurons (small diameter, […]) and HEK293 cells were operated at room temperature (23–25 °C) using EPC-10 amplifier and Patch Master Software (HEKA). […] Currents were sampled at 10 kHz and low-pass filtered at 2.9 kHz. The internal solution was as follows (in mM): 140 CsCl, 10 HEPES, 5 EGTA, 0.1 CaCl2 and 1 MgCl2, with pH adjusted to 7.2 by CsOH and osmolarity 295–300 mOsm. The calcium-free external solution contained (in mM) 140 NaCl, 5 KCl, 0.5 EGTA, 1 MgCl2, 10 Glucose and 10 HEPES, with pH adjusted to 7.4 by NaOH and osmolarity 300–310 mOsm. The 0.5 mM EGTA was replaced by 2 mM CaCl2 for the recordings in DRG neurons. TRPA1 currents development was monitored with repetitive injections of 300 ms duration voltage ramps from −100 to +100 mV every 2 s and the holding potential was set to 0 mV for 50 ms, existing in both sides of the voltage ramp. To record inward currents in DRG neurons, we conducted voltage clamp at holding membrane potential of −70 mV. Solutions were switched using a gravity-fed continuous focal perfusion system.

[4] = molecular target: T2, cTRPA1 (Gallus gallus, UniProt W8VTH6); assay: Whole-cell patch-clamp, HEK293 cells expressing cTRPA1; format: cell-based, chicken
T2 sequence (W8VTH6 1-1126): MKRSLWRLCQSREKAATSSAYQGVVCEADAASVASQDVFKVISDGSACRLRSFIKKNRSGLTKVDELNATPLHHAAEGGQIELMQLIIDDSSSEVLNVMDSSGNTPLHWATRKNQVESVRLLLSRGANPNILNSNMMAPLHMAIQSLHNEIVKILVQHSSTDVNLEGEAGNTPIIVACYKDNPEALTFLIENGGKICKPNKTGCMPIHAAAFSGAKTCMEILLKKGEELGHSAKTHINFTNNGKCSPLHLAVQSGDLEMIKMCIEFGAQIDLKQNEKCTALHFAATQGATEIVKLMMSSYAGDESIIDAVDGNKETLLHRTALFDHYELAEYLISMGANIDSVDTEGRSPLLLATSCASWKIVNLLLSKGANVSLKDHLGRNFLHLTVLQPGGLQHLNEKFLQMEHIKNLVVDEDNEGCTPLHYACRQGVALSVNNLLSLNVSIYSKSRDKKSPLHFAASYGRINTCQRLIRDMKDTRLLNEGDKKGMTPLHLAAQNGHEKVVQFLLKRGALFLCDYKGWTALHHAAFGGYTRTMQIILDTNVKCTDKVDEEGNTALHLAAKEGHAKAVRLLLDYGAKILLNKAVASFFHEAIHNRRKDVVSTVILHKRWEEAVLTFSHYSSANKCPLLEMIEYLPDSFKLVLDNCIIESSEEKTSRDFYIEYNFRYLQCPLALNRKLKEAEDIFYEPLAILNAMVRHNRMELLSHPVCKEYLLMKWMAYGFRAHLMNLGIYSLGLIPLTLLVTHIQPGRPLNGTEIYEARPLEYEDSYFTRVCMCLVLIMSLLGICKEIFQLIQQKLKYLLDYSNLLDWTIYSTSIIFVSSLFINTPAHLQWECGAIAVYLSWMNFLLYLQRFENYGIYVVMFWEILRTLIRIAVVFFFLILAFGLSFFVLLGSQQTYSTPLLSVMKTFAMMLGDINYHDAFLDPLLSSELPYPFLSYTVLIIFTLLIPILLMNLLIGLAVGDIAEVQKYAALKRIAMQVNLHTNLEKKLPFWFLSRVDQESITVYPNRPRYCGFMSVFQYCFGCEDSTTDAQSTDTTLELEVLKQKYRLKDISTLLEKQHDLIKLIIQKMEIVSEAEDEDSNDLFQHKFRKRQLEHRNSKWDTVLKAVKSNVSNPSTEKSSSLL
Protocol: All cell culture reagents were purchased from Life Technologies. HEK293 cells were transfected transiently with the corresponding plasmids using lipofectamine 2000 (Life Technologies). Transfection efficiency was monitored by co-transfecting EGFP plasmid which codes for the enhanced green fluorescent protein. Electrophysiological recordings were performed between 24 and 36 h after transfection.
as §2, with “The internal solution was as follows (in mM): 140 CsCl, 10 HEPES, 5 EGTA, 0.1 CaCl2 and 1 MgCl2, with pH adjusted to 7.2 by CsOH and osmolarity 295–300 mOsm.” left out

[5] = molecular target: mTRPA1 (Mus musculus, UniProt Q8BLA8); assay: Whole-cell patch-clamp, HEK293 cells expressing mTRPA1; format: cell-based; set-up: expressed in transfected cells; host or cells: HEK293; conditions: 30 μM, calcium-free external solution
Protocol: as §1, §2

[6] = molecular target: T3, rTRPA1 (Rattus norvegicus, UniProt Q6RI86); assay: Whole-cell patch-clamp, HEK293 cells expressing rTRPA1; format: cell-based; conditions: 30 μM, calcium-free external solution
T3 construct: expressed in transfected cells; host or cells: HEK293, transient
Protocol: as §1, §2

[7] = tested on: hTRPA1 carrying single mutations (C414A, C421A, C621A, C641A, C665A or K710R); assay: Whole-cell patch-clamp of mutant hTRPA1 channels; format: cell-based, human; conditions: 30 μM flufenamic acid
Protocol: as §1
Whole-cell patch-clamp recordings in DRG neurons (small diameter, […]) and HEK293 cells were operated at room temperature (23–25 °C) using EPC-10 amplifier and Patch Master Software (HEKA). […] Currents were sampled at 10 kHz and low-pass filtered at 2.9 kHz. The internal solution was as follows (in mM): 140 CsCl, 10 HEPES, 5 EGTA, 0.1 CaCl2 and 1 MgCl2, with pH adjusted to 7.2 by CsOH and osmolarity 295–300 mOsm. […] TRPA1 currents development was monitored with repetitive injections of 300 ms duration voltage ramps from −100 to +100 mV every 2 s and the holding potential was set to 0 mV for 50 ms, existing in both sides of the voltage ramp. […]

Sequence of mTRPA1 (Q8BLA8 whole entry): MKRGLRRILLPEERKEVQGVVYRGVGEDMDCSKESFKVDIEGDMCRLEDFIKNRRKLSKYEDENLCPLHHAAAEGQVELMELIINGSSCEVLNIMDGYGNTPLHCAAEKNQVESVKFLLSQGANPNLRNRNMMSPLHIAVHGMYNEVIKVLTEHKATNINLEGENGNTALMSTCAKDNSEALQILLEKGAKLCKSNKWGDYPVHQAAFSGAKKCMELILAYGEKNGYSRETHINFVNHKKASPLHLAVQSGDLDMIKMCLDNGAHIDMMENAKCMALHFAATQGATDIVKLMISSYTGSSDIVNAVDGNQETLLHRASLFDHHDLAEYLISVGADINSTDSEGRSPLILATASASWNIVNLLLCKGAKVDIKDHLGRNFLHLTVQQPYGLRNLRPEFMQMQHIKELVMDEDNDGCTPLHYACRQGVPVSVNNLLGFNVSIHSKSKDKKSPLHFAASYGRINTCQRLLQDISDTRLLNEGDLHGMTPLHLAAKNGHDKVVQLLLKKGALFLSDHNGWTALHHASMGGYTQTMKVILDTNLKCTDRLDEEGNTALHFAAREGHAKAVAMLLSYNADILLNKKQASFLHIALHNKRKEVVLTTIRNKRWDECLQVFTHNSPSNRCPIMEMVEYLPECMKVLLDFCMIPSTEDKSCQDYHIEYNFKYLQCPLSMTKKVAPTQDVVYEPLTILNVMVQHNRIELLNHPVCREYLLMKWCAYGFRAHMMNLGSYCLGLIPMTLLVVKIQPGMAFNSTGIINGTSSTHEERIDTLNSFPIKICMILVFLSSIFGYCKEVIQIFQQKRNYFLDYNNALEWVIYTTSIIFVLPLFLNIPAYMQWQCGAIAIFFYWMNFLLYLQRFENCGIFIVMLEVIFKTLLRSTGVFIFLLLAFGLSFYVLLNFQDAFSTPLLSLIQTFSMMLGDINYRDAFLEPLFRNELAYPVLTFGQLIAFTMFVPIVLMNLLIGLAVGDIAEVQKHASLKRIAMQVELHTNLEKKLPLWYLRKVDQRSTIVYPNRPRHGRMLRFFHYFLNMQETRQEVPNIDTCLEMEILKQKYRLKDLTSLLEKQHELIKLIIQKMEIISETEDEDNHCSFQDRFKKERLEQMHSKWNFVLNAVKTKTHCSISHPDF
T1 sequence (O75762 whole entry): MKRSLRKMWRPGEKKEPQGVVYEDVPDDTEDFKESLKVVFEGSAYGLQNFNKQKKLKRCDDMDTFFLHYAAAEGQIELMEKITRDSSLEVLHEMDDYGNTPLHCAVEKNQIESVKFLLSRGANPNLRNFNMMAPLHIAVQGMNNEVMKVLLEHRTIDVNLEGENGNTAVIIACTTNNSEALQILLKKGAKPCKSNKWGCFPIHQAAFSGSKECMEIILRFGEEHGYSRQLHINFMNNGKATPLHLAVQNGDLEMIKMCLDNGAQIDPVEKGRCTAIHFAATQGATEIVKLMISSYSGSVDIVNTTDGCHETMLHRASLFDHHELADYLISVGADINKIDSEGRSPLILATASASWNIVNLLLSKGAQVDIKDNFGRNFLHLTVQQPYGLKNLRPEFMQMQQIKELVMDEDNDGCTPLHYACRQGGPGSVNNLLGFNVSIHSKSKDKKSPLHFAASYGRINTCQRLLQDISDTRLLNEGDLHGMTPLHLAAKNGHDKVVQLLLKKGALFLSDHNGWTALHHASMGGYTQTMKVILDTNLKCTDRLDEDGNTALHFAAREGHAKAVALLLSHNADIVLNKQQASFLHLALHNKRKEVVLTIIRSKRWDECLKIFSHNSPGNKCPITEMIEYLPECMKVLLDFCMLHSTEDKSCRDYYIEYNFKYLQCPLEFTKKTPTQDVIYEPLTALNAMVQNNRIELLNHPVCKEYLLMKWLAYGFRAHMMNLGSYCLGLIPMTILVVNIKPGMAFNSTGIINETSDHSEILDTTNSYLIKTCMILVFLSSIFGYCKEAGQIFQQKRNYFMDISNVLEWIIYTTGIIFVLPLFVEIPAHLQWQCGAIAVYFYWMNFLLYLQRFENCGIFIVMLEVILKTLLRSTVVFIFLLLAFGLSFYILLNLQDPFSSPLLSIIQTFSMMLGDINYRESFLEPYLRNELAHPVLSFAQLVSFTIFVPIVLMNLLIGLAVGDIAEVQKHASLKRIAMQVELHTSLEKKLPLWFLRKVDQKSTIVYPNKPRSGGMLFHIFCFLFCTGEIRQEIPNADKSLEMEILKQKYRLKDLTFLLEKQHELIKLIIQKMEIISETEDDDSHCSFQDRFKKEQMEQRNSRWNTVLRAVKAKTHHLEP
T3 sequence (Q6RI86 whole entry): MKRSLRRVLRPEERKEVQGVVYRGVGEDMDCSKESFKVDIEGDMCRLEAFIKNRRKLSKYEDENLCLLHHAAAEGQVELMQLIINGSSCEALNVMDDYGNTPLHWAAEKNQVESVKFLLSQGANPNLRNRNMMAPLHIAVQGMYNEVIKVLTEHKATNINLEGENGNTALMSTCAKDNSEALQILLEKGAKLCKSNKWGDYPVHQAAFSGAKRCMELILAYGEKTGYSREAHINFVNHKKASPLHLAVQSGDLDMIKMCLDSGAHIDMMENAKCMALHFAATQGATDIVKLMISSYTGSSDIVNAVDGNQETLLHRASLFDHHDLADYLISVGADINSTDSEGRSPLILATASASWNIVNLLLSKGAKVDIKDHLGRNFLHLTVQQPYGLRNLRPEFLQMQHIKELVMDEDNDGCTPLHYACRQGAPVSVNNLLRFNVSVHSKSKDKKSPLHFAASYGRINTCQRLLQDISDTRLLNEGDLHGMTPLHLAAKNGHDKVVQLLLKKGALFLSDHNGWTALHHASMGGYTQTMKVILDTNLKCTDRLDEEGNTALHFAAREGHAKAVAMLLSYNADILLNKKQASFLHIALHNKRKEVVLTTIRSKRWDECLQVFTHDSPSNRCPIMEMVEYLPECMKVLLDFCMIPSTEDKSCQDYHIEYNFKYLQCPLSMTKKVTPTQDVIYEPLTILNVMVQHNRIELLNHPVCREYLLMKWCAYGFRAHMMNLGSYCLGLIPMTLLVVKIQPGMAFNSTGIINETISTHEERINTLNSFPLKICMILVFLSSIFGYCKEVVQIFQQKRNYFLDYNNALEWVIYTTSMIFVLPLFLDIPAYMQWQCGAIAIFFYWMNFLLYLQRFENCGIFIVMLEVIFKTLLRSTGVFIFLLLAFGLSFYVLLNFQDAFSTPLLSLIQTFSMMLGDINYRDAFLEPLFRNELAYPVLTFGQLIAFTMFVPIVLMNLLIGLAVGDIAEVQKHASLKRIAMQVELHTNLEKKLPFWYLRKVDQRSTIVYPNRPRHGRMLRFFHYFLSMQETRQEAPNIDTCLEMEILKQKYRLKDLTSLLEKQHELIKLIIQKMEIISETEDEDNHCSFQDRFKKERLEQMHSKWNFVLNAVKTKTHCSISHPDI

Compound	damage of spinal cord and sciatic nerve (TEM) [1]	clinical symptoms of delayed neuropathy [2]	activation of hTRPA1 whole-cell currents [3]	EC50 [4] [µM]	activation of cTRPA1 whole-cell currents ([4]; calcium-free external solution)	activation of mTRPA1 whole-cell currents [5]	activation of rTRPA1 whole-cell currents [6]	role of the mutated residues (except C414) for activation of TRPA1 [7]
Cc1ccccc1OP(=O)(Oc1ccccc1C)Oc1ccccc1C [TOCP, tri-ortho-cresyl phosphate]	severely damaged the spinal cord and sciatic nerve	completely paralyzed	effectively activate	15.8 ± 1.37	effectively activate	effectively activate	effectively activate	–
O=C(O)c1ccccc1Nc1cccc(C(F)(F)F)c1 [flufenamic acid]	–	–	–	–	–	–	–	not essential
